Key:
Amaranthus retroflexus = experiment: greenhouse experiment, pre-emergence treatment, herbicidal activity; format: in vivo; settings: application rate 1.0 kg/ha
Text: (§1) The seeds of the test plants were sown separately for each species. For the pre-emergence treatment, directly after sowing the active compounds, which had been suspended or emulsified in water, were applied by means of finely distributing nozzles. The containers were irrigated gently to promote germination and growth and subsequently covered with transparent plastic hoods until the plant had rooted. This cover caused uniform germination of the test plants, unless this was adversely affected by the active compounds. The application rate for a pre-emergence treatment was 0.5 or 1.0 kg of a.s. (active substance)/ha. Depending on the species, the plants were kept at from 10 to 25° C. or from 20 to 35° C. The test period extended over 2 to 4 weeks. During this time, the plants were tended, and their response to the individual treatments was evaluated. Evaluation was carried out using a scale from 0 to 100. 100 means no emergence of the plants, or complete destruction of at least the above-ground parts, and 0 means no damage, or normal course of growth. The plants used in the greenhouse experiments were of the following species: [table]

Setaria faberii [1] = experiment: as above; format: in vivo; settings: application rate 1.0 kg/ha
Text: as §1

Pharbitis purpurea = experiment: greenhouse experiment, post-emergence treatment, herbicidal activity; format: in vivo; settings: application rate 1.0 kg/ha
Text: (§2) The seeds of the test plants were sown separately for each species. For the post-emergence treatment, the test plants were first grown to a height of from 3 to 15 cm, depending on the plant habit, and only then treated with the active compounds which had been suspended or emulsified in water. The test plants were for this purpose either sown directly and grown in the same containers, or they were first grown separately as seedlings and transplanted into the test containers a few days prior to treatment. The application rate for the post-emergence treatment was 0.5 or 1.0 kg of a.s. (active substance)/ha. Depending on the species, the plants were kept at from 10 to 25° C. or from 20 to 35° C. The test period extended over 2 to 4 weeks. During this time, the plants were tended, and their response to the individual treatments was evaluated. Evaluation was carried out using a scale from 0 to 100. 100 means no emergence of the plants, or complete destruction of at least the above-ground parts, and 0 means no damage, or normal course of growth. The plants used in the greenhouse experiments were of the following species: [table]

Setaria faberii [2] = experiment: as above; format: in vivo; settings: application rate 1.0 kg/ha
Text: as §2

Digitaria sanguinalis = experiment: greenhouse experiment, pre-emergence treatment, herbicidal activity; format: in vivo; settings: application rate 1.0 kg/ha
Text: as §1

melting point [°C]	Compound	effect on the harmful plant Setaria faberii, pre-emergence method (Setaria faberii [1])	post-emergence activity against the undesirable plant Pharbitis purpurea (Pharbitis purpurea)	also measured
85 to 87	CCOC(=O)/C(C#N)=C(\N)C(CC)CC [Example 2.1, Ethyl (2Z)-3-amino-2-cyano-4-ethyl-2-hexenoate]	very good	very good	effect on the harmful plant Amaranthus retroflexus, pre-emergence method (Amaranthus retroflexus): very good; post-emergence activity against the undesirable plant Setaria faberii (Setaria faberii [2]): very good
84	CCCOC(=O)/C(C#N)=C(\N)C(CC)CC [Example 2.2, n-Propyl (2Z)-3-amino-2-cyano-4-ethyl-2-hexenoate]	very good	very good	effect on the harmful plant Digitaria sanguinalis, pre-emergence method (Digitaria sanguinalis): very good
78	CCCOC(=O)/C(C#N)=C(\N)C(CC)CSC (stereo not shown) [Example 2.3, n-Propyl (2Z)-3-amino-2-cyano-4-[(methylsulfanyl)methyl]-2-hexenoate]	–	–	–
65	CCC(CC)/C(N)=C(\C#N)C(=O)OC [Example 2.5]	–	–	–
102 to 103	CCOC(=O)/C(C#N)=C(\N)C(C)CC (stereo not shown) [Example 2.6]	–	–	–
65 to 67	CCOC(=O)/C(C#N)=C(\N)C(C)(C)CC [Example 2.8]	–	–	–
56	CCOC(=O)/C(C#N)=C(\N)C(C)(C)Cl [Example 2.9]	–	–	–
46	CCOC(=O)/C(C#N)=C(\N)C(C)(C)Br [Example 2.10]	–	–	–
70	CCC(CC)/C(N)=C(\C#N)C(=O)OCCOC [Example 2.22]	very good	very good	–
70	CCOCCOC(=O)/C(C#N)=C(\N)C(CC)CC [Example 2.23]	–	–	–
